IC50 data for 8 compounds are collected here from patent US20120121591A1 (priority 2009, published 2012).

Holding throughout (type): cell-based
For experiment [1], the system named is IFN-g secretion from T cells in human whole blood. To be noted: read-out: WB (IFNg) IC50 (nM, Avg).
The target in a further experiment is hKv1.3 (Homo sapiens, UniProt P22001). In words: cell-based. To be noted: Kv1.3 (IWQ) IC50 (nM, Avg).
Experiment [2] has as its system IL-2 secretion from T cells in human whole blood. To be noted: read-out: WB (IL-2) IC50 (nM, Avg).

Molecules are shown by their SMILES.

Sequence of hKv1.3 (P22001 whole entry): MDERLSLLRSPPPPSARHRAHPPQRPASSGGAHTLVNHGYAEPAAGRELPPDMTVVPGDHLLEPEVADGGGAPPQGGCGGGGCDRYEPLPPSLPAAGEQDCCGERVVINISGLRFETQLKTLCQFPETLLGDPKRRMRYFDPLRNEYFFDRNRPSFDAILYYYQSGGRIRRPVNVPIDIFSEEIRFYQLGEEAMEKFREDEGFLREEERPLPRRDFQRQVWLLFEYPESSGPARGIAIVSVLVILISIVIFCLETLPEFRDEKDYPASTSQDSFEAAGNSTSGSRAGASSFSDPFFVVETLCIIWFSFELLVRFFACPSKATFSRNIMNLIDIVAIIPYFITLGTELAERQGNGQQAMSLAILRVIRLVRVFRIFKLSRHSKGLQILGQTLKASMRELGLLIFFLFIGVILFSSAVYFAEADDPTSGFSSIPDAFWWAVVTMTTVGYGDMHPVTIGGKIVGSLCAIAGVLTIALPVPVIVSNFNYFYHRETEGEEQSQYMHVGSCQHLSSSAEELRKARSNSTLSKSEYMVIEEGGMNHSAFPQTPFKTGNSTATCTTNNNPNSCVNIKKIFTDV

By IC50 is commonly meant the midpoint of a concentration-inhibition curve. As for `CC[C@H](C)[C@@H]1NC(=O)[C@@H](NC(=O)[C@H](CO)NC(=O)[C@@H](N)CCCNC(=N)N)CSSC[C@@H](C(=O)O)NC(=O)[C@H]([C@@H](C)O)NC(=O)CNC(=O)[C@@H]2CSSC[C@@H]3NC(=O)[C@H](CCC(N)=O)NC(=O)[C@H](Cc4ccccc4)NC(=O)[C@H](C)NC(=O)[C@H]([C@@H](C)O)NC(=O)[C@H](CSSC[C@H](NC(=O)[C@H](Cc4ccccc4)NC(=O)[C@H](CO)NC(=O)[C@H](CC(C)C)NC(=O)[C@H](CCCNC(=N)N)NC(=O)[C@H](Cc4ccc(O)cc4)NC(=O)[C@H](CCCCN)NC(=O)[C@H](CCSC)NC(=O)[C@H](CO)NC(=O)[C@H](Cc4c[nH]cn4)NC(=O)[C@H](CCCCN)NC3=O)C(=O)N[C@@H](CCCNC(=N)N)C(=O)N[C@@H](CCCCN)C(=O)N[C@@H]([C@@H](C)O)C(=O)N2)NC(=O)[C@H](CCCNC(=N)N)NC(=O)[C@H](Cc2cccc3ccccc23)NC(=O)[C@H](CCCCN)NC(=O)[C@@H]2CCCN2C(=O)[C@H]([C@@H](C)CC)NC(=O)[C@H]([C@@H](C)O)NC(=O)[C@H](CC(=O)O)NC1=O` [[1-Nal10]ShK], the IC50 in experiment [1] is 0.255 nM; against hKv1.3 it was 0.206 nM; in experiment [2], 0.205 nM.

Take `CC[C@H](C)[C@@H]1NC(=O)[C@@H](NC(=O)[C@H](CO)NC(=O)[C@@H](N)CCCNC(=N)N)CSSC[C@@H](C(=O)O)NC(=O)[C@H]([C@@H](C)O)NC(=O)CNC(=O)[C@@H]2CSSC[C@@H]3NC(=O)[C@H](CCC(N)=O)NC(=O)[C@H](Cc4ccccc4)NC(=O)[C@H](C)NC(=O)[C@H]([C@@H](C)O)NC(=O)[C@H](CSSC[C@H](NC(=O)[C@H](Cc4ccccc4)NC(=O)[C@H](CO)NC(=O)[C@H](CC(C)C)NC(=O)[C@H](CCCNC(=N)N)NC(=O)[C@H](Cc4ccc(O)cc4)NC(=O)[C@H](CCCCN)NC(=O)[C@H](CCSC)NC(=O)[C@H](CO)NC(=O)[C@H](Cc4c[nH]cn4)NC(=O)[C@H](CCCCN)NC3=O)C(=O)N[C@@H](CCCNC(=N)N)C(=O)N[C@@H](CCCCN)C(=O)N[C@@H]([C@@H](C)O)C(=O)N2)NC(=O)[C@H](Cc2cccc3ccccc23)NC(=O)[C@H](CO)NC(=O)[C@H](CCCCN)NC(=O)[C@@H]2CCCN2C(=O)[C@H]([C@@H](C)CC)NC(=O)[C@H]([C@@H](C)O)NC(=O)[C@H](CC(=O)O)NC1=O` [[1-Nal11]ShK]: the IC50 in experiment [1] was determined as 1.65 nM; at hKv1.3, 0.922 nM; in experiment [2] it was 1.14 nM.

Turning to `CC[C@H](C)[C@@H]1NC(=O)[C@@H](NC(=O)[C@H](CO)NC(=O)[C@@H](N)CCCNC(=N)N)CSSC[C@@H](C(=O)O)NC(=O)[C@H]([C@@H](C)O)NC(=O)CNC(=O)[C@@H]2CSSC[C@@H]3NC(=O)[C@H](CCC(N)=O)NC(=O)[C@H](Cc4cccc5ccccc45)NC(=O)[C@H](C)NC(=O)[C@H]([C@@H](C)O)NC(=O)[C@H](CSSC[C@H](NC(=O)[C@H](Cc4ccccc4)NC(=O)[C@H](CO)NC(=O)[C@H](CC(C)C)NC(=O)[C@H](CCCNC(=N)N)NC(=O)[C@H](Cc4ccc(O)cc4)NC(=O)[C@H](CCCCN)NC(=O)[C@H](CCSC)NC(=O)[C@H](CO)NC(=O)[C@H](Cc4c[nH]cn4)NC(=O)[C@H](CCCCN)NC3=O)C(=O)N[C@@H](CCCNC(=N)N)C(=O)N[C@@H](CCCCN)C(=O)N[C@@H]([C@@H](C)O)C(=O)N2)NC(=O)[C@H](CCCNC(=N)N)NC(=O)[C@H](CO)NC(=O)[C@H](CCCCN)NC(=O)[C@@H]2CCCN2C(=O)[C@H]([C@@H](C)CC)NC(=O)[C@H]([C@@H](C)O)NC(=O)[C@H](CC(=O)O)NC1=O` [[1-Nal15]ShK], the IC50 is 0.291 nM in experiment [1], 0.072 nM at hKv1.3 and 0.184 nM in experiment [2].

As to `CC[C@H](C)[C@@H]1NC(=O)[C@@H](NC(=O)[C@H](CO)NC(=O)[C@@H](N)CCCNC(=N)N)CSSC[C@@H](C(=O)O)NC(=O)[C@H]([C@@H](C)O)NC(=O)CNC(=O)[C@@H]2CSSC[C@@H]3NC(=O)[C@H](Cc4cccc5ccccc45)NC(=O)[C@H](Cc4ccccc4)NC(=O)[C@H](C)NC(=O)[C@H]([C@@H](C)O)NC(=O)[C@H](CSSC[C@H](NC(=O)[C@H](Cc4ccccc4)NC(=O)[C@H](CO)NC(=O)[C@H](CC(C)C)NC(=O)[C@H](CCCNC(=N)N)NC(=O)[C@H](Cc4ccc(O)cc4)NC(=O)[C@H](CCCCN)NC(=O)[C@H](CCSC)NC(=O)[C@H](CO)NC(=O)[C@H](Cc4c[nH]cn4)NC(=O)[C@H](CCCCN)NC3=O)C(=O)N[C@@H](CCCNC(=N)N)C(=O)N[C@@H](CCCCN)C(=O)N[C@@H]([C@@H](C)O)C(=O)N2)NC(=O)[C@H](CCCNC(=N)N)NC(=O)[C@H](CO)NC(=O)[C@H](CCCCN)NC(=O)[C@@H]2CCCN2C(=O)[C@H]([C@@H](C)CC)NC(=O)[C@H]([C@@H](C)O)NC(=O)[C@H](CC(=O)O)NC1=O` [[1-Nal16]ShK], the IC50 in experiment [1] stood at 9.55 nM; on hKv1.3 it was 0.699 nM; in experiment [2], 28.9 nM.

For `CC[C@H](C)[C@@H]1NC(=O)[C@@H](NC(=O)[C@H](CO)NC(=O)[C@@H](N)CCCNC(=N)N)CSSC[C@@H](C(=O)O)NC(=O)[C@H]([C@@H](C)O)NC(=O)CNC(=O)[C@@H]2CSSC[C@@H]3NC(=O)[C@H](CCC(N)=O)NC(=O)[C@H](Cc4ccccc4)NC(=O)[C@H](C)NC(=O)[C@H]([C@@H](C)O)NC(=O)[C@H](CSSC[C@H](NC(=O)[C@H](Cc4ccccc4)NC(=O)[C@H](CO)NC(=O)[C@H](CC(C)C)NC(=O)[C@H](CCCNC(=N)N)NC(=O)[C@H](Cc4ccc(O)cc4)NC(=O)[C@H](CCCCN)NC(=O)[C@H](CCSC)NC(=O)[C@H](CO)NC(=O)[C@H](Cc4c[nH]cn4)NC(=O)[C@H](Cc4cccc5ccccc45)NC3=O)C(=O)N[C@@H](CCCNC(=N)N)C(=O)N[C@@H](CCCCN)C(=O)N[C@@H]([C@@H](C)O)C(=O)N2)NC(=O)[C@H](CCCNC(=N)N)NC(=O)[C@H](CO)NC(=O)[C@H](CCCCN)NC(=O)[C@@H]2CCCN2C(=O)[C@H]([C@@H](C)CC)NC(=O)[C@H]([C@@H](C)O)NC(=O)[C@H](CC(=O)O)NC1=O` [[1-Nal18]ShK], the IC50 was 0.375 nM in experiment [1], 0.471 nM against hKv1.3 and 0.419 nM in experiment [2].

In the case of `CC[C@H](C)[C@@H]1NC(=O)[C@@H](NC(=O)[C@H](CO)NC(=O)[C@@H](N)CCCNC(=N)N)CSSC[C@@H](C(=O)O)NC(=O)[C@H]([C@@H](C)O)NC(=O)CNC(=O)[C@@H]2CSSC[C@@H]3NC(=O)[C@H](CCC(N)=O)NC(=O)[C@H](Cc4ccccc4)NC(=O)[C@H](C)NC(=O)[C@H]([C@@H](C)O)NC(=O)[C@H](CSSC[C@H](NC(=O)[C@H](Cc4ccccc4)NC(=O)[C@H](CO)NC(=O)[C@H](CC(C)C)NC(=O)[C@H](CCCNC(=N)N)NC(=O)[C@H](Cc4ccc(O)cc4)NC(=O)[C@H](CCCCN)NC(=O)[C@H](CCSC)NC(=O)[C@H](CO)NC(=O)[C@H](Cc4cccc5ccccc45)NC(=O)[C@H](CCCCN)NC3=O)C(=O)N[C@@H](CCCNC(=N)N)C(=O)N[C@@H](CCCCN)C(=O)N[C@@H]([C@@H](C)O)C(=O)N2)NC(=O)[C@H](CCCNC(=N)N)NC(=O)[C@H](CO)NC(=O)[C@H](CCCCN)NC(=O)[C@@H]2CCCN2C(=O)[C@H]([C@@H](C)CC)NC(=O)[C@H]([C@@H](C)O)NC(=O)[C@H](CC(=O)O)NC1=O` [[1-Nal19]ShK], the IC50 is 0.255 nM in experiment [1], 0.277 nM on hKv1.3 and 0.153 nM in experiment [2].

Regarding `CC[C@H](C)[C@@H]1NC(=O)[C@@H](NC(=O)[C@H](CO)NC(=O)[C@@H](N)CCCNC(=N)N)CSSC[C@@H](C(=O)O)NC(=O)[C@H]([C@@H](C)O)NC(=O)CNC(=O)[C@@H]2CSSC[C@@H]3NC(=O)[C@H](CCC(N)=O)NC(=O)[C@H](Cc4ccccc4)NC(=O)[C@H](C)NC(=O)[C@H]([C@@H](C)O)NC(=O)[C@H](CSSC[C@H](NC(=O)[C@H](Cc4ccccc4)NC(=O)[C@H](CO)NC(=O)[C@H](CC(C)C)NC(=O)[C@H](CCCNC(=N)N)NC(=O)[C@H](Cc4ccc(O)cc4)NC(=O)[C@H](CCCCN)NC(=O)[C@H](Cc4cccc5ccccc45)NC(=O)[C@H](CO)NC(=O)[C@H](Cc4c[nH]cn4)NC(=O)[C@H](CCCCN)NC3=O)C(=O)N[C@@H](CCCNC(=N)N)C(=O)N[C@@H](CCCCN)C(=O)N[C@@H]([C@@H](C)O)C(=O)N2)NC(=O)[C@H](CCCNC(=N)N)NC(=O)[C@H](CO)NC(=O)[C@H](CCCCN)NC(=O)[C@@H]2CCCN2C(=O)[C@H]([C@@H](C)CC)NC(=O)[C@H]([C@@H](C)O)NC(=O)[C@H](CC(=O)O)NC1=O` [[1-Nal21]ShK], the figures for the IC50 (in experiment [1]; against hKv1.3; in experiment [2]) were 8.13 nM, 0.669 nM and 6.59 nM, respectively.

Consider `CC[C@H](C)[C@@H]1NC(=O)[C@@H](NC(=O)[C@H](CO)NC(=O)[C@@H](N)CCCNC(=N)N)CSSC[C@@H](C(=O)O)NC(=O)[C@H]([C@@H](C)O)NC(=O)CNC(=O)[C@@H]2CSSC[C@@H]3NC(=O)[C@H](CCC(N)=O)NC(=O)[C@H](Cc4ccccc4)NC(=O)[C@H](C)NC(=O)[C@H]([C@@H](C)O)NC(=O)[C@H](CSSC[C@H](NC(=O)[C@H](Cc4ccccc4)NC(=O)[C@H](CO)NC(=O)[C@H](Cc4cccc5ccccc45)NC(=O)[C@H](CCCNC(=N)N)NC(=O)[C@H](Cc4ccc(O)cc4)NC(=O)[C@H](CCCCN)NC(=O)[C@H](CCSC)NC(=O)[C@H](CO)NC(=O)[C@H](Cc4c[nH]cn4)NC(=O)[C@H](CCCCN)NC3=O)C(=O)N[C@@H](CCCNC(=N)N)C(=O)N[C@@H](CCCCN)C(=O)N[C@@H]([C@@H](C)O)C(=O)N2)NC(=O)[C@H](CCCNC(=N)N)NC(=O)[C@H](CO)NC(=O)[C@H](CCCCN)NC(=O)[C@@H]2CCCN2C(=O)[C@H]([C@@H](C)CC)NC(=O)[C@H]([C@@H](C)O)NC(=O)[C@H](CC(=O)O)NC1=O` [[1-Nal25]ShK], for which the figures for the IC50 (in experiment [1]; against hKv1.3; in experiment [2]) were 0.084 nM, 0.106 nM and 0.061 nM, respectively.
